Results as given in ChEMBL document CHEMBL3507680, “University of Dundee, Gates Library screen for HepG2 cell viability”.

Test: Human HepG2 cell viability assay in 384 well format
Format: toxicity, cell-based
Design: dose 125 nL, time 70.5 hour; cytotoxicity at 70.5 h: concentration not given beside the values
Conditions: HepG2 cells, read-out: Inhibition

Row | SMILES | cytotoxicity at 70.5 h [%]
1 | O=C(c1ccc[nH]1)N1CCc2ncc(Cn3cccn3)n2CC1 | 18.1
2 | O=C(Nc1ccc(F)cc1)N1C[C@H]2C[C@H](C(=O)N3CCCC3)[C@@H](C1)O2 | -9.47
3 | CN(C)C(=O)N1CCC(c2nc3ccc(-c4ccccc4)cn3n2)CC1 | -4.01
4 | CC(C)OC[C@H]1CCC[C@]12CN(S(=O)(=O)c1cn(C)cn1)CCO2 | -4.1
5 | O=c1cc(Cn2ccnc2)nc2n1CCCN(S(=O)(=O)C1CC1)C2 | -11.3
6 | Cc1cc(C(=O)N2CC[C@H]3[C@H]2CCN3S(C)(=O)=O)c(C)o1 | 0.739
7 | CN(C)C(=O)CN1CCc2ncnc(C3CC3)c2CC1 | 2.76
8 | CC(C)NC(=O)N1CC[C@@H]2CN(S(C)(=O)=O)CCO[C@@H]2C1 | -4.96
9 | CO[C@H]1CO[C@@]2(CCCN(S(=O)(=O)c3ccccc3)C2)C1 | -10.1
10 | O=S(=O)(c1ccccc1)N1CC[C@]2(C[C@@H](OCC3CC3)CO2)C1 | -10.2
11 | Cn1cc(CN2CCCC23CCN(S(C)(=O)=O)CC3)cn1 | -2.11
12 | Cc1cc(CN2CCC3(CC2)C(=O)NCCN3CC2CC2)oc1C | 9.39
13 | C[C@H]1C[C@@H]2CCN(C(=O)c3cccn3C)C[C@H]2O1 | -12.7
14 | CN(C)CCN1CCC2(CC1)CN(c1cccnc1)C(=O)CO2 | -13.5
15 | O=C(c1cnccn1)N1CCc2onc(CN3CCOCC3)c2C1 | 23.2
16 | CNC(=O)c1nc2c(s1)CCN(C(=O)Cc1ccc(OC)cc1)CC2 | 20.5
17 | Cc1cc(C(=O)N2CCc3ncc(CN4CCOCC4)n3CC2)no1 | 28.9
18 | CC(C)CN1C[C@H]2C[C@H](C(=O)Nc3cccnc3)[C@@H](C1)O2 | -4.05
19 | Cc1cc(C(=O)N2CC[C@@H]3CN(c4ncccn4)CCO[C@@H]3C2)c(C)o1 | -12.2
20 | Cn1cc(C2COC3(CCN(C(=O)c4ccc(F)cc4)CC3)C2)cn1 (stereo not given) | -2.41
21 | Cc1nnc([C@@H]2CC[C@@H]3[C@@H](CCN3S(=O)(=O)c3cccnc3)O2)o1 | 0.577
22 | CCN1C[C@H]2C[C@H](C(=O)NCc3cccnc3)[C@@H](C1)O2 | 3.07
23 | CC(C)CCN1Cc2c(C(=O)O)ncn2-c2ccccc2S1(=O)=O | 30.1
24 | Cc1nc2c(c(NC3CC3)n1)CCN(C(=O)C(C)(C)O)CC2 | 2.5
25 | O=C(c1ccncc1F)N1CCc2ncnc(-c3ccncc3)c2CC1 | 6.15
26 | Cc1nc(CN2C(=O)CC[C@@H]3[C@H]2CCN3C(=O)NC2CC2)cs1 | 21.8
27 | O=C(C1CCOCC1)N1C[C@@H]2[C@@H](C1)OCC(=O)N2CC1CC1 | -6.04

Row | SMILES | cytotoxicity at 70.5 h [%]
28 | CC(=O)NCC(=O)N1Cc2nccn2CC(CN2CCCC2)C1 (stereo not given) | 0.0844
29 | CC(C)CN1Cc2c(C(=O)N(C)C)ncn2-c2ccccc2S1(=O)=O | -6.58
30 | CN(C)C(=O)COC1COC2(CCN(S(C)(=O)=O)CC2)C1 (stereo not given) | -6.01
31 | Cc1occc1C(=O)N1CCc2c(COCC3CC3)cncc2C1 | -2.87
32 | O=C(CC1CC1)NCc1cn2c(n1)CN(C(=O)c1cccnc1)CC2 | -7.69
33 | COCCC(=O)N1CCC2(COCc3cnc(N4CCOCC4)nc32)C1 (stereo not given) | -15.1
34 | CC(=O)N1CC[C@@H]2CN(C(=O)c3ccco3)CCO[C@@H]2C1 | -29.3
35 | O=C(c1ccsc1)N1CCN2C[C@H](OCc3cccnc3)C[C@H]2C1 | -13.4
36 | Cn1cccc1C(=O)N1CCCn2nc(CCC(=O)NC3CC3)cc2C1 | 9.42
37 | COc1cccc(CC2CN(C3CCC3)CCO2)c1 (stereo not given) | 0.0358
38 | CC(C)c1cc(C(=O)N2CCOC3(CCCC3)C2)no1 | -21.7
39 | COCC(=O)N1CCCC(C(=O)NCc2cc(CC(C)C)on2)C1 (stereo not given) | 27
40 | O=C(NC1CC1)c1ccnc(N2CCOC(c3ccc(Cl)cc3)C2)c1 (stereo not given) | 7.4
41 | CC1(c2ccccc2)CCCN(Cc2cncn2C2CCCC2)C1 (stereo not given) | -13.6
42 | Cc1nccc(N2CCCC(c3nnc(Cn4ccnc4C)n3C)C2)n1 (stereo not given) | 16.3
43 | O=c1cc(-c2cc(O)cc(CCC3CCCCN3)c2)cc[nH]1 (stereo not given) | -6.48
44 | CNc1ncccc1C(=O)N1CCC2(CCN(C)C2)CC1 | 2.78
45 | Cc1nc(N[C@H]2COC[C@@H]2N2CCCCC2)c2c(C)nn(C)c2n1 | -4.88
46 | CCn1nc(C)cc1C(=O)N1C[C@@H](CN(C)C)[C@@H](CO)C1 | -2.98
47 | COc1ncccc1C(=O)N1CCc2c(ncnc2N2CCOCC2)C1 | -3.85
48 | COCC1CCCN(C(=O)c2ccc(N(C)Cc3cnn(C)c3)nc2)C1 (stereo not given) | 26
49 | CC(C)[C@@H]1CN(Cc2ccccc2C#N)C[C@H]1NC(=O)N(C)C | -1.2
50 | COCc1cccc(C(=O)N2C[C@H]3CC[C@@H]2CN(Cc2cscn2)C3)n1 | 34.5
51 | CCC(NC(=O)c1cc(NC(C)=O)ccc1Cl)c1cc(C)ccn1 (stereo not given) | 9.03
52 | CCN(C)C(=O)c1coc(COc2ccccc2)n1 | -4.16
53 | CC(=O)c1cnc(N(C)Cc2cnc3ccccc3n2)nc1C | -5.98
54 | Cc1nc(C(=O)NCCS(=O)(=O)N2CCCC2)cs1 | 13.7

Row | SMILES | cytotoxicity at 70.5 h [%]
55 | CN(CCc1ccccc1)Cc1nc(Cc2cccc(F)c2)no1 | 0.246
56 | CC(C)(C)c1ccn(C2(C(=O)O)CCN(c3ccncc3F)CC2)n1 | -8.89
57 | O=C(NCc1cncc2c1CCN(C1CCOCC1)C2)c1ccno1 | -7.6
58 | O=C(NCc1cncc2c1CCN(C1CCOCC1)C2)c1ccco1 | -2.15
59 | c1cncc(OC[C@@H]2CCC[C@@]23CNCCO3)c1 | 14.3
60 | O=C(C1CCCO1)N1CCCC2(CCN(c3cccnc3)CC2)C1 (stereo not given) | -3.98
61 | Cn1ccnc1CN1CCc2onc(COCC3CC3)c2C1 | -4.62
62 | CN(C)C(=O)CN1CC[C@]2(CN(CC3CC3)C[C@H]2c2ccccc2)C1=O | -6.06
63 | CN(C)Cc1cc(=O)n2c(n1)CN(S(=O)(=O)C1CC1)CCC2 | -6.08
64 | CN(C)C(=O)CN1CCc2ncnc(NC3CCC3)c2CC1 | 0.00388
65 | Cc1cc(C)cc(CN2C[C@@H]3OCCN(CC(=O)N(C)C)[C@@H]3C2)c1 | -0.77
66 | Cc1ncnc2c1CCN(CC(=O)N(C)C)CC2 | -5.19
67 | Cc1cccc(S(=O)(=O)N2CC[C@H]3CO[C@H](CN(C)C)[C@H]3C2)c1 | -6.86
68 | CN(C)C(=O)CC1CC2(CCN(CC3CC3)CC2)c2cc(F)ccc21 (stereo not given) | 35.7
69 | CCc1cnc(N2CCC3(CC2)CN(c2cccnc2)C(=O)CO3)nc1 | 23.8
70 | CS(=O)(=O)NC[C@]12COC[C@H]1CN(CC1CCCC1)C2 | -12.8
71 | CCC1=N[C@@]2(CC[C@@H]3CN(Cc4ccc(Cl)cc4)C[C@@H]32)C(=O)N1C | -15.2
72 | Cc1ccc(C(=O)N2CCC3(CCN(C(=O)c4cccnc4)C3)CC2)o1 | -19.3
73 | CCN(CC)Cc1cn2c(n1)CN(C(=O)c1cnccn1)CC2 | -13.4
74 | Cc1cc(CN2CC[C@H]3C[C@H](C(=O)N4CCC(C)CC4)O[C@H]3C2)no1 | -9.04
75 | O=C(c1ccc(F)cc1)N1C[C@H]2CCC[C@@]2(COCc2ccccn2)C1 | -15.6
76 | O=C(NC1CC1)[C@@H]1CCO[C@@H]2CCN(Cc3ccsc3)C[C@H]21 | -2.46
77 | Cc1ccc(C(=O)N2C[C@@H]3OCCN(CCN4CCCC4)[C@@H]3C2)cn1 | -4.09
78 | CC(C)OCc1ncn2c1CN(Cc1cccs1)CCC2 | 1.83
79 | CN1C(=O)C2(CCN(CC3CC3)CC2)c2ccccc21 | -2.61
80 | O=C(N1CCCC1)N1Cc2nccn2CC(CN2CCCC2)C1 (stereo not given) | -8.56
81 | CC(C)OCc1ncn2c1CN(Cc1ccc(F)cc1)CCC2 | -3.8

Row | SMILES | cytotoxicity at 70.5 h [%]
82 | COCCN1CCC2(COCc3cnc(N4CCOCC4)nc32)C1 (stereo not given) | 28.1
83 | CN(C)C(=O)NC1COC2(CCN(Cc3ccccc3)CC2)C1 (stereo not given) | 27.7
84 | CN(C)C(=O)c1cnc2n1CCN(Cc1ccccc1)C2 | -15.3
85 | CN(C)[C@@H]1CCN(C(=O)Cc2ccc(F)cc2)[C@H]1Cc1cnn(C)c1 | -10.4
86 | Cc1ccc(CN2CCn3c(C(=O)N(C)C)cnc3C2)s1 | -20.4
87 | CC(C)CN1CCC2(C1)CN(c1ncccn1)C2 | -11.9
88 | COCCN1CCC2(CCCN(c3ncccn3)C2)C1 (stereo not given) | -12.6
89 | CN(C)[C@@H]1CCN(C(=O)NC2CCCC2)[C@H]1Cc1cnn(C)c1 | -15.8
90 | Cn1cc(CN2CCC[C@]3(C[C@@H](Oc4ncccc4F)CO3)C2)cn1 | -6.45
91 | COc1ncccc1CN1C[C@H]2CCN(C(C)C)C[C@H]2C1 | -4.86
92 | Cc1nc(CN2CCN3C[C@H](Oc4cncnc4)C[C@H]3C2)cs1 | 5.24
93 | Cn1ccc(CN2CCCC23CCN(Cc2cccc(F)c2)CC3)n1 | 0.351
94 | Cn1ccc(CN2CCCC23CCN(Cc2nccn2C)CC3)n1 | -2.05
95 | Cn1ccnc1CN1CCCC2(CCN(CC3CCCO3)CC2)C1 (stereo not given) | 4.14
96 | c1cc(CN2CCO[C@H]3[C@H](OCC4CCCC4)CC[C@@H]32)ccn1 | -5.29
97 | CN(C)CCN1CCO[C@@H]2CN(C(=O)c3cccs3)CC[C@@H]2C1 | -16.4
98 | CC(C)CN1C[C@H]2CCN(Cc3cccnc3)CC[C@H]2S1(=O)=O | -10.9
99 | CC(C)N1Cc2c(C(=O)N3CCOCC3)nn(C)c2C1 | -13.7
100 | O=C(c1ccnnc1)N1C[C@@H]2OCCN(CCN3CCCC3)[C@@H]2C1 | 4.4
101 | Cc1ccc(CN2CC[C@H]3[C@@H]2CCC(=O)N3CCN2CCCC2)s1 | 11.4
102 | CCC(=O)N1Cc2nccn2CC(CN(C)Cc2cccnc2)C1 (stereo not given) | -17.9
103 | O=C(c1cccc(F)c1)N1CCN2C[C@H](OCc3cccnc3)C[C@H]2C1 | -19
104 | FC1(F)CCN(Cc2ccncc2)CC12CCN(Cc1ccccn1)C2 (stereo not given) | 14.3
105 | c1ccc(NCc2cn3c(n2)CN(Cc2cccnc2)CC3)nc1 | -10
